Results as given in PubChem BioAssay AID1996.
Values after ≈ are worked out from the molar mass of the structure shown.

Conditions: buffer; pH 7.4; 200.0 µM

Going from Cc1ccc(O)c(-c2cc(-c3ccc(F)cc3)no2)c1 to Cc1cnc(NC(=O)c2ccc(-c3ccc([N+](=O)[O-])cc3)o2)s1, the solubility kinetic rises from less than 0.6 µg/mL to 1.9 µg/mL (≈ 5.77 µM).

Compared with C=CCOn1c(=O)c(-c2ccc(OCC)cc2)[n+]([O-])c2ccccc21, COc1ccc2c(c1)c(C(=O)O)c(C)n2-c1ccccc1 is 6.1-fold higher in solubility kinetic: 6.3 µg/mL (≈ 18.6 µM) for the first, 38.4 µg/mL (≈ 137 µM) for the second.

OCCC1CCCCN1CC(O)COCc1ccc(Cl)cc1 (stereo not given) and OC(COc1ccc(F)cc1Cl)CN1CCc2ccccc2C1 (stereo not given) are within 1.5-fold of each other in solubility kinetic: 45.1 µg/mL (≈ 138 µM) for the first, 37.4 µg/mL (≈ 111 µM) for the second.

Compared with CCn1c(O)c(C#N)c(C)cc1=O, CCn1c(C)c(CS(=O)(=O)c2ccccc2)[nH]c1=O is lower in solubility kinetic: greater than 26.7 µg/mL for the first, 9.8 µg/mL (≈ 35 µM) for the second.

COC(=O)c1sccc1NC(=O)NC1CCCCC1 and CC(C)C(OC(=O)c1ccc(Cl)nc1)C(=O)NC1CCCCC1 (stereo not given) are within 1.5-fold of each other in solubility kinetic: 23.8 µg/mL (≈ 84.3 µM) for the first, 29.7 µg/mL (≈ 87.7 µM) for the second.

First: O=C(CN1CCN(c2ccc(Cl)cc2)CC1)c1ccccc1
Second: O=C(CNc1cccc(Cl)c1)c1ccc(Br)cc1
The solubility kinetic of the first is higher: 18.7 µg/mL (≈ 59.4 µM) for the first, less than 0.7 µg/mL for the second.

Going from O=[N+]([O-])c1ccc2cn[nH]c2c1 to Cc1ccc([N+](=O)[O-])cc1NC(=O)C1CCCC1, the solubility kinetic falls from greater than 24.5 µg/mL to 9.4 µg/mL (≈ 37.9 µM).

Going from COC(=O)C1CN(C(=O)c2cccc(OC(F)F)c2)c2ccccc2O1 (stereo not given) to O=C(O)/C=C\C(=O)Nc1ccc(OC(F)F)cc1, the solubility kinetic falls from greater than 54.5 µg/mL to 35.5 µg/mL (≈ 138 µM).

First: COc1ccc(S(=O)(=O)N2CCOCC2)cc1NC(=O)CN1C(=O)CN(C)C1=O
Second: O=C(Nc1cc(S(=O)(=O)N2CCOCC2)ccc1O)c1ccc(S(=O)(=O)N2CCCCC2)cc1
The solubility kinetic of the first is higher: greater than 64 µg/mL for the first, 4.8 µg/mL (≈ 9.42 µM) for the second.

First: CC(Cc1c[nH]c2ccccc12)C(=O)NCc1ccco1 (stereo not given)
Second: COc1ccccc1CNc1cncnc1
The solubility kinetic of the first is higher: greater than 42.4 µg/mL for the first, 28.2 µg/mL (≈ 131 µM) for the second.

CC1CCCC(C)N1C(=O)COC(=O)c1ccc(Br)o1 (stereo not given) and O=C(OCC(=O)N1CCCCC1)c1cccs1 cannot be ordered by solubility kinetic: greater than 51.6 µg/mL for the first, greater than 38 µg/mL for the second.

Compared with CCOC(=O)c1ccc(NC(=O)Nc2ncccc2C)cc1, CCOC(=O)c1ccc(NC(=O)Nc2ccon2)cc1 is 10-fold higher in solubility kinetic: 0.6 µg/mL (≈ 2 µM) for the first, 6 µg/mL (≈ 21.8 µM) for the second.

Going from CC(C)CC(=O)N1CCN(Cc2ccccc2Br)CC1 to O=C(NCCN1CCCCC1)Nc1ccccc1Cl, the solubility kinetic rises from 42 µg/mL (≈ 124 µM) to greater than 42.3 µg/mL.

COc1ccc(C(=O)Nc2ccc3ncccc3c2)cc1 and COc1ccc(NC(C)=O)cc1NC(=O)c1ccc(Cl)cc1 are within 1.5-fold of each other in solubility kinetic: 12.1 µg/mL (≈ 43.5 µM) for the first, 17.2 µg/mL (≈ 54 µM) for the second.

First: Cc1cc(C)nc(-n2ncc3c2CC(C)CC3=O)n1 (stereo not given)
Second: CC1CCC2(CC1)NC(=O)N(CC(=O)c1ccc3c(c1)OCO3)C2=O (stereo not given)
The solubility kinetic of the first is higher: greater than 38.4 µg/mL for the first, 3.8 µg/mL (≈ 11 µM) for the second.

Compared with CNC(=S)Nc1ccc(C)c(NC(=S)NC)c1, COC(=O)Cc1ccc(NC(=S)Nc2cccc(C)n2)cc1 is lower in solubility kinetic: greater than 40.3 µg/mL for the first, 1.6 µg/mL (≈ 5.07 µM) for the second.

COc1ccc(OC)c(C(O)C(C)N)c1.Cl (stereo not given) and COCC(C)NC(=O)c1cc(OC)cc(OC)c1 (stereo not given) cannot be ordered by solubility kinetic: greater than 37.2 µg/mL for the first, greater than 38 µg/mL for the second.

Going from C[C@H](Cc1ccccc1)Nc1ncnc2c1ncn2[C@@H]1O[C@H](CO)[C@@H](O)[C@H]1O to CCC(=O)Nc1nc(-c2ccccc2)nc(SC)c1C(C)=O, the solubility kinetic falls from greater than 57.8 µg/mL to 0.4 µg/mL (≈ 1.27 µM).

COc1ccc(Cl)cc1N1C(=O)c2cccnc2C1=O and NC(=O)c1ccc(=O)n(Cc2ccc(Cl)cc2Cl)c1 cannot be ordered by solubility kinetic: greater than 43.3 µg/mL for the first, greater than 44.6 µg/mL for the second.

O=C(/C=C/c1c(F)cccc1Cl)NCCCN1CCOCC1 and Cc1ccc(C)c(S(=O)(=O)NCCCN2CCOCC2)c1 cannot be ordered by solubility kinetic: greater than 49 µg/mL for the first, greater than 46.9 µg/mL for the second.

Going from Cc1ccc(NC(=O)CCN2CC(C)OC(C)C2)cc1.Cl (stereo not given) to COC(=O)c1sccc1S(=O)(=O)Nc1ccc(C)cc1, the solubility kinetic falls from greater than 46.9 µg/mL to 5 µg/mL (≈ 16.1 µM).

Compared with O=C(CSCc1ccc(C(=O)O)cc1)Nc1ccc2ccccc2c1, CCN(c1ccccc1)S(=O)(=O)c1ccc(Cl)c(NC(=O)CNCc2ccccc2OC)c1 is lower in solubility kinetic: greater than 52.7 µg/mL for the first, 3.7 µg/mL (≈ 7.58 µM) for the second.

Cc1cc(NC(=O)CCCn2cnc([N+](=O)[O-])n2)no1 and CC(NC(=O)COc1cccnc1[N+](=O)[O-])c1ccc(F)cc1 (stereo not given) cannot be ordered by solubility kinetic: greater than 42 µg/mL for the first, greater than 47.9 µg/mL for the second.

CCc1ccc(S(=O)(=O)Nc2ccccn2)cc1 and Cc1ccc(S(=O)(=O)NC(=O)c2cccc(C)c2)cc1 cannot be ordered by solubility kinetic: greater than 39.3 µg/mL for the first, greater than 43.4 µg/mL for the second.

First: CCCCCn1c(C)c2c(OCC)cccc(=O)c2c1C
Second: CC1=[N+](C)N(c2ccccc2)C(=O)C1N=C/C=C/c1ccccc1 (stereo not given)
The solubility kinetic of the first is lower: 9.4 µg/mL (≈ 32.7 µM) for the first, greater than 47.8 µg/mL for the second.

Going from CN(C)c1ccc(P(=O)(OC2CCCCC2)C(O)c2ccncc2)cc1 (stereo not given) to CC(OC(=O)c1ccc(Cl)nc1)C(=O)NC1CCCC1 (stereo not given), the solubility kinetic falls from 52.8 µg/mL (≈ 141 µM) to 24.7 µg/mL (≈ 83.2 µM) (2.1-fold).

Going from NC(=O)c1cccnc1Oc1ccccc1 to CC(C(=O)O/N=C(\N)c1ccccn1)c1ccc([N+](=O)[O-])cc1 (stereo not given), the solubility kinetic rises from 28.8 µg/mL (≈ 134 µM) to greater than 47.1 µg/mL.

Compared with COc1ccc(C(=O)N2CCN(c3ncccn3)CC2)cc1[N+](=O)[O-], O=[N+]([O-])c1ccccc1/C=C/CN1CCSCC1 is 1.7-fold lower in solubility kinetic: 50.5 µg/mL (≈ 147 µM) for the first, 29.2 µg/mL (≈ 110 µM) for the second.

Nc1cccc(Oc2cnccn2)c1 and COc1ccc(C2C3(C#N)C(N)=NC(OC)(OC)C23C#N)cc1 (stereo not given) cannot be ordered by solubility kinetic: greater than 28.1 µg/mL for the first, greater than 46.8 µg/mL for the second.

Going from CC(C)(/C=N/O)N(O)C=C1C=CC(=O)C=C1 to CC(C)(C)NC(=O)NC(=O)CN1CCCCCCC1, the solubility kinetic falls from greater than 33.3 µg/mL to 21.2 µg/mL (≈ 78.7 µM).
